Source: PubChem BioAssay AID1508612

Assay: passive permeability, PAMPA, ADME assay (AID 1508612)
Conditions: pH 7.4, 30.0 min, 50.0 µM

Papp [×10⁻⁶ cm/s] | Structure (SMILES)
435 | CCN1CCc2c(sc(NC(=O)Nc3ccc(Cl)c(Cl)c3)c2C(N)=O)C1
> 1000 | CC(Nc1nc(N2CCN(S(C)(=O)=O)CC2)nc2ccccc12)c1ccccc1 (configuration not stated)
202 | O=C(NC1CCCCC1)N1Cc2[nH]cnc2C[C@H]1c1nc(-c2cccc([N+](=O)[O-])c2)no1
30.2 | Cc1cc(NS(=O)(=O)c2ccc(NC(=O)Cc3ccc(Cl)c(Cl)c3)cc2)no1
2.21 | O=[S+]([O-])(Nc1ccc(C2CCNCC2)cc1)c1ccc(NCc2ccc(Cl)cc2O)cc1
763 | COc1ccc(-c2ccc3ncc(Nc4ccncc4)n3n2)cc1OC
66.2 | NC(=O)C1CCN(c2nc(-c3cc4ccccc4o3)cs2)CC1
498 | O=C(CSc1ccccc1)Nc1nnc(COc2ccc(Cl)cc2)s1
136 | O=C(Nc1cccc(F)c1)c1cc(-c2ccc[nH]2)n[nH]1
> 1000 | CSc1cc2c(s1)c1cnn(Cc3cccc(N)c3)c(=O)c1n2C
548 | COc1ccc(NC(=O)c2c(C)cccc2C)cc1[S+](=O)([O-])N1CCCCC1
24.9 | O=C(c1ccccc1)N1CCC(C(=O)N2CCC(N3Cc4ccccc4C3=O)CC2)CC1
26.6 | O=C(Nc1cccc(OC(F)(F)F)c1)c1cc(-c2ccc[nH]2)n[nH]1
593 | COc1cc(C(=O)NC2CCCc3c2[nH]c2c(Cl)cccc32)cc(OC)c1OC (configuration not stated)
2.8 | NC(=O)COc1ccc(C2CC(=O)Nc3n[nH]c(Nc4ccccc4)c32)cc1 (configuration not stated)
12.1 | CC(=O)Nc1nc(C)c(-c2ccc(Cl)c(S(=O)(=O)NCCO)c2)s1
< 1 | CS(=O)(=O)CCNCc1ccc(-c2ccc3ncnc(Nc4ccc(OCc5cccc(F)c5)c(Cl)c4)c3c2)o1
161 | O=C1CCCC2=C1C(C1CCCCC1Cl)N=C(NC1NC3CCCCC3S1)N2 (configuration not stated)
706 | COc1ccc2oc(NC3=NC(c4[nH]ncc4Cl)C4=C(CCCC4=O)N3)nc2c1 (configuration not stated)
71.7 | COCCn1ccc2c(C3=CCOCC3)nc(-c3ccc4c(c3)CNC4=O)cc21
793 | CCOc1ccccc1N1CC(c2nc3ccccc3n2CCOc2ccc(C(C)(C)C)cc2)CC1=O (configuration not stated)
723 | CNc1oc(-c2cccc3ccccc23)nc1C#N
23.2 | O=C(NCc1ccccc1)C1CCN(c2nc(-c3ccc(Br)cc3)cs2)CC1
37.3 | NC(=O)C1CCN(c2nccc(Cl)n2)CC1
255 | CCOP(=O)(Cc1ccc(C(=O)Nc2ccc(Br)cc2C#N)cc1)OCC
< 1 | CNC(=O)c1cc(Oc2ccc(NC(=O)Nc3ccc(Cl)c(C(F)(F)F)c3)c(F)c2)ccn1
868 | COc1cccc(CN(C)c2ccc([S+](=O)([O-])Nc3nccs3)cc2)c1O

Papp [×10⁻⁶ cm/s] | Structure (SMILES)
> 1000 | CCOc1ccc(-c2csc(N3CCC(C(N)=O)CC3)n2)cc1
297 | Cc1ccc(S(=O)(=O)Nc2cnccc2C(=O)Nc2nc(-c3ccco3)cs2)cc1
476 | Nc1nc2c(s1)C(c1cc(Cl)ccc1F)CC(=O)N2 (configuration not stated)
> 1000 | COc1cc(OC)cc(-c2csc(N3CCC(C(N)=O)CC3)n2)c1
74.4 | Cc1ccc(S(=O)(=O)Nc2cnccc2C(=O)Nc2nc(-c3ccncc3)cs2)cc1
723 | CC(C)NC(=O)c1nc(-c2ccc(Cl)nc2)c2cnccn12
852 | Cc1cc(C)nc(NC(=S)N2CCN(c3cccc(OC(F)F)c3)CC2)c1
671 | N#CC1CCN(c2nc(-c3ccc(Br)cc3)cs2)CC1
> 1000 | Cc1ccc(N(C)S(=O)(=O)c2ccc(-c3cnc(C4CC4)o3)cc2)cc1
550 | CCOc1ccccc1N(CC(=O)N1CCOCC1)S(=O)(=O)c1ccc(SC)cc1
> 1000 | Cn1c(CN2CCCCC2)nc2cc(NC(=O)c3cccc(Br)c3)ccc21
< 1 | O=C(O)c1cn(C2CC2)c2cc(N3C[C@@H]4C[C@H]3CN4)c(F)cc2c1=O
665 | O=C(NCC1(c2nc(-c3ccccc3)cs2)CCOCC1)c1cccc(-c2noc(C(F)(F)F)n2)c1
747 | CCN1CCN(c2ccc(Nc3ccc(-c4ccc(C(N)=O)cc4)n4ncnc34)cc2)CC1
> 1000 | Cc1cc(N2CCN(c3ccccc3)CC2)nc(-n2nc(C)cc2C)n1
674 | COc1cccc(CC(=O)Nc2nc(-c3ccc4c(c3)CCN4C(=O)c3ccccc3C)c(C)s2)c1
572 | COc1cccc(CNc2ccc(S(=O)(=O)Nc3cccs3)cc2)c1O
238 | CC1=NN(c2ccc(C(=O)O)cc2)C(=O)/C1=C/c1ccc(-c2cc(C)c(C)cc2[N+](=O)[O-])o1
31.5 | COc1cccc(CNc2ccc(S(=O)(=O)Nc3ncccn3)cc2)c1O
225 | O=C([C@@H]1CCCN(c2ccc3[nH]c(C4(n5cc(Cl)cn5)CC4)nc3n2)C1)N1CCCC1
993 | Cc1ccc(OCCn2c(CCNC(=O)c3ccccc3Br)nc3ccccc32)cc1
989 | CCOC(=O)c1cc(-c2ccco2)nc2c1c(C)nn2CCC#N
238 | O=C(NCc1cccnc1)c1nc(-c2ccc(Cl)nc2)c2cnccn12
97.5 | Cc1ccc2c(c1)/C(=C\c1cc(Cl)c(O)c(Cl)c1)C(=O)N2
> 1000 | COc1cccc(CNc2ccc(S(=O)(=O)Nc3cccc4ccncc34)cc2)c1O
> 1000 | Clc1ccccc1Nc1nc(-c2ccncc2)nc2ccccc12
489 | COc1ccnc(NC(=S)N2CCN(c3ccccc3C(F)(F)F)CC2)c1

Papp [×10⁻⁶ cm/s] | Structure (SMILES)
10.7 | COc1cccc(CNc2ccc(S(=O)(=O)Nc3ccc(N4CCNCC4)nc3)cc2)c1O
> 1000 | Cc1ccccc1C(=O)N1CCc2cc(-c3ccnc(NC(=O)Cc4ccccc4)n3)ccc21
36.1 | COc1ccc(C2CC(=O)Nc3nc(N)sc32)cc1OC (configuration not stated)
754 | Cc1ccc(OCCn2c(CCNC(=O)c3ccc(Cl)cc3)nc3ccccc32)cc1
< 1 | O=C(O)c1ccnc(-c2cc(C(=O)NCCc3ccccc3)ccn2)c1
> 1000 | COc1cc2ncnc(Nc3ccc(Oc4ccccc4)cc3)c2cc1OC
763 | C[C@@H]1Cc2c([nH]c3cc(Cl)c(F)cc23)[C@]2(N1)C(=O)Nc1ccc(Cl)cc12
30.8 | COc1cccc(CNc2ccc(S(=O)(=O)Nc3nc4ccccc4[nH]3)cc2)c1O
> 1000 | COc1ccccc1Nc1ccnc(N2CCN(C(=O)c3ccc(C)cc3)CC2)n1
325 | COc1cc(NS(=O)(=O)c2ccc(C)cc2)c(C(=O)Nc2nc(-c3ccccc3)cs2)cc1OC
> 1000 | O=C(NCc1ccccc1)c1cn2cc(-c3ccccc3)sc2n1
> 1000 | Cc1c(Cl)cccc1-n1ncc(C(=O)Nc2ccc(Br)cc2F)c1C1CCNCC1
58.9 | CSc1ccc(-c2cnc(N3CCC(C(N)=O)CC3)s2)cc1
687 | Cc1ccccc1C(=O)Nc1ccc2c(c1)CCCN2C(=O)c1cccs1
58.8 | Fc1cc(Nc2nc(-c3ccncc3)nc3ccccc23)ccc1OCC(F)(F)F
900 | C=Cc1ccc(Cn2c(C(=O)O)c(CNCc3ccccc3)c3ccc(OC)cc32)cc1
> 1000 | C=CC(=O)Nc1cccc(Oc2nc(Nc3ccc(N4CCN(C)CC4)cc3)ncc2Cl)c1
6.1 | COc1cc(Cl)cn2c(-c3cccc(NC4CNC4)n3)cnc12
550 | CCOC(=O)N1CCN(Cc2nc3c(c(=O)n(C)c(=O)n3C)n2Cc2ccc(F)cc2)CC1
569 | Cc1ccccc1C(=O)N1CCc2cc(-c3nc(NC(=O)c4ccc5c(c4)OCO5)sc3C)ccc21
3.96 | O=C1Nc2ccccc2/C1=C\c1ccc(C(=O)O)cc1
11 | O=C(NC1CC1)C1CCCN1C(=O)c1cccc(-c2ccccn2)c1 (configuration not stated)
> 1000 | Cc1cc(C)nc(NC(=S)N2CCN(c3ccc(Cl)cc3[N+](=O)[O-])CC2)c1
78 | O=C1Nc2cc(Cl)ccc2/C1=C\c1cc(Cl)c(O)c(Cl)c1
685 | COc1ccc(-n2nc(C3CCCN(C(=O)c4ccc(C)cc4)C3)[nH]c2=O)cc1 (configuration not stated)
765 | CCOC(=O)N1CCN(Cc2nc3c(c(=O)n(C)c(=O)n3C)n2CCC(C)C)CC1
< 1 | CCOc1cc(CCNC(=O)c2cc3sccc3n2Cc2ccccc2)cc(F)c1OCC

Papp [×10⁻⁶ cm/s] | Structure (SMILES)
955 | CN(C)c1cccc(-c2cnc(N3CCC(c4ncc[nH]4)CC3)s2)c1
> 1000 | O=c1[nH]c(N2CCOCC2)nc2c1CCN(Cc1cc(Cl)ccc1F)CC2
762 | CCCN1C(CC(C)C)=NS(=O)(=O)c2cc(NC(=O)c3cccs3)ccc21
< 1 | Cc1ccc(S(=O)(=O)Nc2cnccc2C(=O)Nc2nc(C(=O)O)cs2)cc1
524 | O=[S+]([O-])(Nc1ccccc1)c1ccc(NCc2ccc(Cl)cc2O)cc1
506 | Cc1ccc(-c2[nH]n3c(=O)c4c(nc3c2C)CCCC4)cc1
29.9 | Cn1ccc2c(C(=O)NCCC(N)=O)nc(-c3cccc(CO)c3)cc21
361 | COc1ccc(Cn2c(C(=O)O)c(CNCc3cccc(OC)c3)c3ccc(C)cc32)cc1
30.5 | CN(C)C(=O)c1cccc(-c2csc(N3CCC(C(N)=O)CC3)n2)c1
984 | O=C(Nc1ncc(Cc2ccc(C(F)(F)F)cc2)s1)c1ccc(-c2cccnc2)o1
9.1 | Cc1ccc(S(=O)(=O)Nc2cnccc2C(=O)Nc2nc(-c3cc(Br)cs3)cs2)cc1
> 1000 | Cc1cc(-c2nnc3n2CCCCC3)c(C)n1-c1ccc(Cl)c(Cl)c1
366 | COc1ccc(OC)c(CNc2ncnc3onc(C)c23)c1
652 | O=C(NC1CC1)c1nc(-c2cccnc2)c2ccccn12
647 | O=C1CCCC2=C1C(c1[nH]ncc1Cl)N=C(Nc1nc3cc(F)ccc3o1)N2 (configuration not stated)
15.8 | NC(=O)COc1cccc(C2CC(=O)Nc3nc(N4CCCCC4)sc32)c1 (configuration not stated)
38.4 | CCOC(=O)C1CCN(C(=O)Nc2ccc3c(c2)nc(C)n3C)CC1
> 1000 | Cc1cnc(CNc2nc(-c3cccc(NS(C)(=O)=O)c3)nc3ccccc23)cn1
610 | COc1ccc(-n2c(C)cc(C3=NNC(=NC4CC4)SC3)c2C)cc1
2.4 | Cc1ccc(S(=O)(=O)Nc2ccc(Br)cc2C(=O)Nc2nc(-c3ccccc3)cs2)cc1
28.7 | CSc1ccc(C(=O)c2[nH]c(=O)[nH]c2C)cc1
69.6 | Cc1ccc(S(=O)(=O)Nc2cnccc2C(=O)Nc2ccc(C#N)cc2)cc1
627 | COc1ccc(NC(C)=O)cc1S(=O)(=O)Nc1ccc(Br)cc1
497 | Cc1ccccc1CSc1nc2ncc(Br)cc2[nH]1

Structure (SMILES) | Papp [×10⁻⁶ cm/s]
COC1C(OC(=O)c2ccc(C)[nH]2)C(O)C(Oc2ccc3c(O)c(NC(=O)c4ccc(O)c(CC=C(C)C)c4)c(=O)oc3c2Cl)OC1(C)C (configuration not stated) | 7.04
Nc1c(C(=O)Nc2ccc(Cl)cc2)sc2nc3c(cc12)N1CCC3CC1 | 697
